# Legend:
# [1] = test system: fully differentiated Down syndrome nerve cells; experiment: Vesicle transport in Down syndrome nerve cells; type: cell-based
# Text: (§1) Butanetap's reversal of the neurotoxic cascade: Butanetap's mechanism of action is related to APP, Tau, and aSYN expression being regulated by RP1 and by iron and the way these proteins contribute to neurodegeneration by accumulating as toxic aggregates that impair axonal transport and synaptic transmission, causing inflammation, and, finally, leading to nerve cell death (as described previously).
# [2] = test system: immortalized neuroblastoma (SH-SY5Y) cells; experiment: Gingipain cytotoxicity on neuroblastoma cells, AlamarBlue viability; type: cell-based; conditions: 48 hours, between 1 and 10 nM
# Experimental: (§2) Immortalized Mouse Astrocytes—SV40T (IMA2.1), immortalized Mouse Microglia (SIM-A9) and immortalized neuroblastoma (SH-SY5Y) cells were infected for 48 hours with gingipains HRgpA and RgpB (arginine gingipains), and Kgp (lysine-specific cysteine proteinase—Lys-gingipain, KGP). After 48 hours the cells were assessed for viability with the AlamarBlue assay and the percentage of dead or alive cells versus control was plotted. […] As expected, since neither are dying, […]. […] Therefore, we expect the efficacious buntanetap dose to fight P. gingivalis infection to be the same as to treat Alzheimer's and Parkinson's disease has no impact on the microglia or neuroblastoma survival in the presence of gingipains.
# [3] = test system: traumatic brain injury rats; experiment: Traumatic brain injury rats; type: in vivo, rat
# Text: (§3) Butanetap's efficacy in treating neurodegeneration in animal models: Restored memory and learning in an APP/PS1 transgenic (tg) mouse model of AD; Restored memory and learning in a Ts65dn mouse model of Down syndrome (DS) [W. Mobley, UCSD, submitted 2020]; Preserved the retina in acute glaucoma [J Sundstrom; Hershey Medical School]; Restored colonic motility in a human SNCAA53T tg mouse model of PD (Kuo et. al., Am J Neurodegener Dis 2019; 8(1):1-15 www.AJND.us/ISSN:216 591X/AJND0086080: Translational inhibition of α-synuclein by Butanetap (Posiphen) normalizes distal colon motility in transgenic Parkinson mice); Preserved memory and learning in traumatic brain injury rats (M-F Chesselet, submitted 2020).
# as §1
# [4] = test system: neurotoxic aggregating proteins in stem cells (dividing cells); experiment: Neurotoxic aggregating proteins in stem cells and derived neurons; type: cell-based
# rat acute glaucoma model = experiment: Acute glaucoma model; type: in vivo
# Text: as §3, §1
# alpha-synuclein = alpha-synuclein in gut in vivo, PD A53T mice, Western blot
# Experimental: • A. FIG. 5, alpha-synuclein in vitro. […] On the left is a Western blot showing butanetap inhibition of aSYN in relation to Actin standard at concentrations of 0, 0.1, 1, 5 and 10 μM and on the right a graph showing the same data plotted for statistical analysis purposes. • B. FIG. 6, alpha-synuclein brain in vivo. […] The animals were only treated for 2 weeks, so in brain it takes butanetap only 2 weeks to lower levels of alpha-synuclein. • C. FIG. 7, alpha-synuclein in gut in vivo. Gut levels of aSYN following treatment of PD A53T mice with 10 mg/kg for 21 weeks and 21 days reduced αSYN levels in the gut as shown by Western Blot.
# [5] = test system: neurotoxic aggregating proteins; experiment: Neurotoxic aggregating proteins in cerebral cortex of transgenic AD and PD animals
# [6] = test system: APP/PS1 transgenic (tg) mouse model of AD; experiment: APP/PS1 transgenic mouse model of AD, memory, learning and synaptic transmission; type: in vivo
# Text: as §3, §1
# [7] = test system: human SNCAA53T tg mouse model of PD; conditions: SNCAA53T tg mice; cited from earlier work
# [8] = test system: Tau in transgenic neo-natal human Tau mice cells; experiment: Tau in vitro; type: cell-based; conditions: cells treated for 4 days, antibodies against Tau and phospho-Tau, FIG. 3
# Experimental: The cells were treated for 4 days with butanetap harvested, solubilized, and tested with antibodies against Tau and phospho-Tau. • B. FIG. 4, Tau in vivo. […] After 6 weeks, mice were killed and the total and insoluble (aggregated) tau was measured. […] Precipitated tau corresponds to tangles in the brain.
# [9] = test system: Immortalized Mouse Astrocytes—SV40T (IMA2.1); experiment: Gingipain cytotoxicity on astrocytes, AlamarBlue viability; type: cell-based; conditions: retest at much lower concentrations, 1 nM, FIG. 10
# Experimental: as §2
# FIG. 10 show the results of retesting of the gingipain effect on astroglia at much lower concentrations.
# [10] = test system: fully differentiated healthy resting nerve cells; experiment: Translation of neurotoxic aggregating proteins in differentiated nerve cells; type: cell-based
# Text: (§4) Therefore, the original data concerning the effects of butanetap working under all conditions is wrong. (See, e.g., Lahiri, et al., “The Experimental Alzheimer's Disease Drug butanetap [(+)-Phenserine] Lowers Amyloid-β Peptide Levels in Cell Culture and Mice”, J. Pharmacol. Ther. 320:386-396, 2007 (hereby incorporated by reference)). It only works in stressed cells, dividing cells and sick cells, e.g., those cells that have high levels of iron.
# [11] = test system: neurotoxic aggregating proteins; experiment: Translation of neurotoxic aggregating proteins in healthy mouse brain; type: in vivo
# Text: as §4
# [12] = Efficacious concentration in tissue culture; type: cell-based
# APP or aSYN mRNA to IRP1 = APP or aSYN mRNA to IRP1 (Homo sapiens, UniProt P21399); experiment: Binding of mRNA IRE to IRP1
# Text: as §4
# Butanetap augments the binding of APP mRNA IRE to IRP1 under high iron conditions and prevents APP from being translated excessively, restoring homeostasis. The same mechanism works for all neurotoxic aggregating proteins tested to date: Butanetap works under iron-dishomeostasis to restore homeostasis.
# αSYN = type: in vivo, mice; conditions: 50 and 65 mg/kg for 21 days, FIG. 6
# APP and its fragments = experiment: APP and fragments in hippocampus of APP/PS1 transgenic AD mice; type: in vivo
# Text: GAPDH and Synaptophysin were loading controls. FIG. 2 also includes a collection of graphs showing relative density of APP plotted against control and time after butanetap treatment; relative density of CTFβ plotted against control and time after butanetap treatment; relative density of CTFα plotted against control and time after butanetap treatment; Aβ42 levels in brain tissue plotted against control and time after butanetap treatment; and Aβ40 levels in brain tissue plotted against control and time after butanetap treatment. Finally, FIG. 2 also includes a Western blot showing levels of APP, NSB, CTFβ, and CTFα after butanetap treatment over time (minutes).
# Sequence of APP or aSYN mRNA to IRP1 (P21399 whole entry): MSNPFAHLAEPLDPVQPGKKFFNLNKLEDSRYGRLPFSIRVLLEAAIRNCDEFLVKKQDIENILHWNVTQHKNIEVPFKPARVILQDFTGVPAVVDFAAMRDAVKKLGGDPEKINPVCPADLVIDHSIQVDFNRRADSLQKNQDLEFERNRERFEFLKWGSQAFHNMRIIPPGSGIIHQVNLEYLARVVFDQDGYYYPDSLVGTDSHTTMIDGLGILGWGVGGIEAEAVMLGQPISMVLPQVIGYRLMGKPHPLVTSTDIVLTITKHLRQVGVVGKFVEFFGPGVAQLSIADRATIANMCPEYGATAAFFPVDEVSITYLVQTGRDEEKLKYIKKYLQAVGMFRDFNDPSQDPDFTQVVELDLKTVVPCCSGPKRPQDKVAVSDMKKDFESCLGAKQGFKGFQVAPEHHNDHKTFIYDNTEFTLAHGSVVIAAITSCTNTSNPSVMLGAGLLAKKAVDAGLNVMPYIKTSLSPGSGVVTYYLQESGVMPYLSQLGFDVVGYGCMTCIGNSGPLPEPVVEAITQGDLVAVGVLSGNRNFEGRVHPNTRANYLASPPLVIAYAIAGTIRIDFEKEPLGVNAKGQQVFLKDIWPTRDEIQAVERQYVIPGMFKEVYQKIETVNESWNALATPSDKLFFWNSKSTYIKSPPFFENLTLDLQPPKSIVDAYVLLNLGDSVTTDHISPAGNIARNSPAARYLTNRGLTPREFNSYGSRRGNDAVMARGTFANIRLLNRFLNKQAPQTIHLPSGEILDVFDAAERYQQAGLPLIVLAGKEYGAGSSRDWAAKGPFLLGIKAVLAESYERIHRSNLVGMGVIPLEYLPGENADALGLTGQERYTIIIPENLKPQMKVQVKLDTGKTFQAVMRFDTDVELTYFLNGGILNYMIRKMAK
structure (smiles),measurement,setting,value
"CN1CC[C@]2(C)c3cc(OC(=O)Nc4ccccc4)ccc3N(C)C12 (stereo partly drawn) [butanetap, (3aR)-1,3a,8-trimethyl-1,2,3,3a,8,8a-hexahydropyrrolo[2,3-b]indol-5-yl phenylcarbamate]",anterograde and retrograde vesicle transport,[1],Normalized
same,neuroblastoma survival in the presence of gingipains,[2],no impact
same,inflammation,[3]; rat brain after TBI,lowered
same,impaired synaptic transmission,[3]; rat striatum after TBI,Normalized
same,nerve cells,[3]; rat substantia nigra after TBI,protected
same,memory and learning,[3]; traumatic brain injury rats,Preserved
same,neurotoxic aggregating proteins,[4]; differentiated neurons derived from the stem cells,not in the differentiated neurons
same,neurotoxic aggregating proteins,[4]; stem cells (dividing cells),inhibits
same,retina,rat acute glaucoma model; acute glaucoma,Preserved
same,nerve cells,rat acute glaucoma model; rat acute glaucoma model,protected
same,reduction of alpha-synuclein levels in the gut,"alpha-synuclein; 10 mg/kg for 21 weeks, p<0.05, FIG. 7",50.6%
same,significant reduction of alpha-synuclein levels in the gut,alpha-synuclein; 10 mg/kg for 21 days,not at 21 days
same,neurotoxic aggregating proteins,[5],not inhibit
same,memory and learning,[6]; APP/PS1 tg mice,Restored
same,impaired synaptic transmission,[6]; hippocampus of APP/PS1 tg mice,Normalized
same,colonic motility,[7],Restored
same,Tau expression,[8],reduces
same,protection of gingipain infected astrocytes,[9],completely protected
same,protection of gingipain infected astrocytes,[9]; listed as buntanetap,protects astrocytes at very low concentrations
same,translation of neurotoxic aggregating proteins,[10],does not inhibit
same,translation of neurotoxic aggregating proteins,[11],does not inhibit
same,dose found to be efficacious,[12],1 nM
same,binding of APP mRNA IRE to IRP1,APP or aSYN mRNA to IRP1; under high iron conditions,augments
same,binding of APP or aSYN mRNA to IRP1,APP or aSYN mRNA to IRP1; under iron or metal-homeostasis,does not increase
same,αSYN in the brain,αSYN,reduced
same,APP and its fragments (all related peptides) in hippocampus,APP and its fragments; FIG. 2,reduced
same,duration of reduction of APP and related peptides after the last dose,APP and its fragments; hippocampus,at least 9 hours

# — patent publication US12582632B2, “Inhibition of neurological injuries due to infections via administration of Butanetap and analogs thereof” (priority 2021, dated 2026)
